What was measured:
Experiment in all cases: Viable cell count after culture in supplemented BL broth
Assay type in all cases: cell-based
Conditions in all cases: Exp. Ex. 1 carbon source; 2 parts by weight in 100 parts BL broth; 20 hours; pH about 5.0 to 6.5
[1] = system: Lactobacillus rhamnosus CBT-LR5 (KCTC 12202BP)
Procedure: (§1) To promote the growth of non-specific various types of lactic acid bacteria, an optimal mixture composition was determined by culturing each of the following strains using each component, ratio and composition and measuring the viable cell count of each of the strains: Lactobacillus casei CBT-LC5 (accession number: KCTC 12398BP), Lactobacillus plantarum CBT-LP3 (accession number: KCTC 10782BP), Lactobacillus rhamnosus CBT-LR5 (accession number: KCTC 12202BP), Bifidobacterium longum CBT-BG7 (accession number: KCTC 12200BP), Bifidobacterium lactis CBT-BL3 (accession number: KCTC 11904BP), Bifidobacterium bifidum CBT-BF3 (accession number: KCTC 12199BP), Streptococcus thermophilus CBT-ST3 (accession number: KCTC 11870BP), and Pediococcus pentosaceus CBT-SL4 (accession number: KCTC 10297BP). Starter cultures were prepared using BL broth.
(§2) 0.1 to 1 part by weight of each of the starter cultures was inoculated into 100 parts by weight of each prepared medium, and then cultured for 20 hours while the pH was maintained at about 5.0 to 6.5. […] Thus, glucose or fructooligosaccharide was selected as a carbon source for a subsequent experiment (Table 2). […]
(§3) 0.1 to 1 part by weight of each starter culture was inoculated into 100 parts by weight of each of the prepared media, and then cultured for 20 hours while the pH was maintained at about 5.0 to 6.5. […]

[2] = system: Pediococcus pentosaceus CBT-SL4 (KCTC 10297BP)
Procedure: as §1, §2, §3

[3] = system: Bifidobacterium longum CBT-BG7 (KCTC 12200BP)
Procedure: as §1, §2, §3

[4] = system: Bifidobacterium bifidum CBT-BF3 (KCTC 12199BP)
Procedure: as §1, §2, §3

[5] = system: Lactobacillus plantarum CBT-LP3 (KCTC 10782BP)
Procedure: as §1, §2, §3

[6] = system: Bifidobacterium lactis CBT-BL3 (KCTC 11904BP)
Procedure: as §1, §2, §3

[7] = system: Streptococcus thermophilus CBT-ST3 (KCTC 11870BP)
Procedure: as §1, §2, §3

[8] = system: Lactobacillus casei CBT-LC5 (KCTC 12398BP)
Procedure: as §1, §2, §3

Question: With `OC[C@H]1O[C@@](CO)(O[C@H]2O[C@H](CO)[C@@H](O)[C@H](O)[C@H]2O)[C@@H](O)[C@@H]1O` [Refined sugar] as the molecule, how does the viable cell count [1] read?
Answer: The viable cell count was 425 ×10^7 cfu/ml.

Question: And the viable cell count [2]?
Answer: Its viable cell count is 580 ×10^7 cfu/ml.

Question: And the viable cell count [3]?
Answer: Its viable cell count is 464 ×10^7 cfu/ml.

Question: And the viable cell count [4]?
Answer: Its viable cell count is 325 ×10^7 cfu/ml.

Question: What about the viable cell count [5] of the same molecule?
Answer: Its viable cell count is 427 ×10^7 cfu/ml.

Question: And the viable cell count [6]?
Answer: The viable cell count was 472 ×10^7 cfu/ml.

Question: What about the viable cell count [7] of the same molecule?
Answer: The viable cell count was 504 ×10^7 cfu/ml.

Question: What about the viable cell count [8] of the same molecule?
Answer: The viable cell count was 482 ×10^7 cfu/ml.

Question: Which viable cell count [1] does the source give for `O=C(CO)[C@@H](O)[C@H](O)[C@H](O)CO` [Fructose] here?
Answer: The viable cell count was 486 ×10^7 cfu/ml.

Question: And the viable cell count [2]?
Answer: Its viable cell count is 550 ×10^7 cfu/ml.

Question: What about the viable cell count [3] of the same molecule?
Answer: Its viable cell count is 405 ×10^7 cfu/ml.

Question: And the viable cell count [4]?
Answer: The viable cell count was 434 ×10^7 cfu/ml.

Question: What about the viable cell count [5] of the same molecule?
Answer: The viable cell count was 452 ×10^7 cfu/ml.

Question: And the viable cell count [6]?
Answer: Its viable cell count is 522 ×10^7 cfu/ml.

Question: And the viable cell count [7]?
Answer: The viable cell count was 402 ×10^7 cfu/ml.

Question: And the viable cell count [8]?
Answer: Its viable cell count is 408 ×10^7 cfu/ml.

Question: How did the viable cell count [1] turn out when `OC[C@H]1O[C@@H](O[C@H]2[C@H](O)[C@@H](O)C(O)O[C@@H]2CO)[C@H](O)[C@@H](O)[C@H]1O` (stereo partly drawn) [Lactose] was run?
Answer: Its viable cell count is 405 ×10^7 cfu/ml.

Question: What about the viable cell count [2] of the same molecule?
Answer: Its viable cell count is 520 ×10^7 cfu/ml.

Question: What about the viable cell count [3] of the same molecule?
Answer: Its viable cell count is 456 ×10^7 cfu/ml.

Question: What about the viable cell count [4] of the same molecule?
Answer: Its viable cell count is 460 ×10^7 cfu/ml.

Question: And the viable cell count [5]?
Answer: The viable cell count was 550 ×10^7 cfu/ml.

Question: What about the viable cell count [6] of the same molecule?
Answer: The viable cell count was 420 ×10^7 cfu/ml.

Question: What about the viable cell count [7] of the same molecule?
Answer: Its viable cell count is 450 ×10^7 cfu/ml.

Question: What about the viable cell count [8] of the same molecule?
Answer: Its viable cell count is 405 ×10^7 cfu/ml.
